Measurements: patent US4086196A, “Parathyroid hormone” (Armour Pharmaceutical Company, priority 1975, dated 1978)
Values belong to the molecule of their own block, whether it stands above or below them.

How the values were obtained:
[1] = test system: adenylate cyclase in rat renal cortical homogenates; assay: In vitro rat kidney adenylate cyclase bioassay; format: biochemical; details: mean potency with 95% confidence limits; against house standard Sephadex-BPTH calibrated to MRC Standard A
Method: (§1) In vitro bioassays based on the activation of adenylate cyclase in rat renal cortical homogenates were carried out by the procedure of Marcus and Aurbach (Endocrinology, (1969), 85, 801-810). In vivo bioassays were performed by the method of Parsons, Reit and Robinson (Endocrinology, (1973), 92, 454-462), a procedure based on increase in the serum calcium in the chick after intravenous injection. A house standard of highly purified bovine parathyroid hormone ("Sephadex-BPTH") calibrated against Medical Research Council Standard A (National Institute for Medical Research, London, England) was used for both in vivo and in vitro assays. The biological activities of the synthetic HPTH-(1-34), and the native HPTH-(1-84)-peptides in the in vitro rat kidney adenylate cyclase assay and the in vivo chick hypercalcemia assay are shown in Table 2. Included for comparison are the corresponding data on the native bovine-(1-84) and the synthetic bovine-(1-34) peptides, as well as the analogue [Ala^1 ]-HPTH-(1-34).

[2] = test system: serum calcium in the chick; assay: In vivo chick hypercalcemia bioassay; details: mean potency with 95% confidence limits; intravenous injection; against house standard Sephadex-BPTH calibrated to MRC Standard A
Method: as §1

[3] = bioassay systems in vivo and in vitro; cited from earlier work

Molecule: HPTH-(1-84) (native): native human parathyroid hormone (1-84)
- In vitro Rat kidney adenylate cyclase [1]: 350 (275-425) MRCU/mg

Molecule: CC[C@H](C)[C@H](NC(=O)[C@H](CCC(=O)O)NC(=O)[C@H](CO)NC(=O)[C@@H](NC(=O)[C@@H](N)CO)C(C)C)C(=O)N[C@@H](CCC(N)=O)C(=O)N[C@@H](CC(C)C)C(=O)N[C@@H](CCSC)C(=O)N[C@@H](Cc1c[nH]cn1)C(=O)N[C@@H](CC(N)=O)C(=O)N[C@@H](CC(C)C)C(=O)NCC(=O)N[C@@H](CCCCN)C(=O)N[C@@H](Cc1c[nH]cn1)C(=O)N[C@@H](CC(C)C)C(=O)N[C@@H](CC(N)=O)C(=O)N[C@@H](CO)C(=O)N[C@@H](CCSC)C(=O)N[C@@H](CCC(=O)O)C(=O)N[C@@H](CCCNC(=N)N)C(=O)N[C@H](C(=O)N[C@@H](CCC(=O)O)C(=O)N[C@@H](Cc1c[nH]c2ccccc12)C(=O)N[C@@H](CC(C)C)C(=O)N[C@@H](CCCNC(=N)N)C(=O)N[C@@H](CCCCN)C(=O)N[C@@H](CCCCN)C(=O)N[C@@H](CC(C)C)C(=O)N[C@@H](CCC(N)=O)C(=O)N[C@@H](CC(=O)O)C(=O)N[C@H](C(=O)N[C@@H](Cc1c[nH]cn1)C(=O)N[C@@H](CC(N)=O)C(=O)N[C@@H](Cc1ccccc1)C(=O)O)C(C)C)C(C)C [HPTH-(1-34)]
- In vitro Rat kidney adenylate cyclase [1]: 1030 (930-1140) MRCU/mg
- In vivo Chick hypercalcemia [2]: 7400(5700-9700) MRCU/mg

B1: BPTH-(1-84) (native): native bovine parathyroid hormone (1-84) (protein, UniProt P01268 32-115, looked up)
Parathyroid hormone: AVSEIQFMHNLGKHLSSMERVEWLRKKLQDVHNFVALGASIAYRDGSSQRPRKKEDNVLVESHQKSLGEADKADVDVLIKAKPQ
modifications: Parathyroid hormone
- In vitro Rat kidney adenylate cyclase [1]: 3000(2500-4000) MRCU/mg
- In vivo Chick hypercalcemia [2]: 2500(2100-4000) MRCU/mg

Further lines, with some results ahead:

- In vitro Rat kidney adenylate cyclase [1]: 5400(3900-8000) MRCU/mg
Molecule: BPTH-(1-34): synthetic peptide corresponding to 1-34 residues of bovine parathyroid hormone [reference compound]
- In vivo Chick hypercalcemia [2]: 7700(5200-11100) MRCU/mg
- potency relative to whole bovine parathyroid hormone [3]: equipotent

- In vitro Rat kidney adenylate cyclase [1]: 4085(3550-4700) MRCU/mg
Molecule: CC[C@H](C)[C@H](NC(=O)[C@H](CCC(=O)O)NC(=O)[C@H](CO)NC(=O)[C@@H](NC(=O)[C@H](C)N)C(C)C)C(=O)N[C@@H](CCC(N)=O)C(=O)N[C@@H](CC(C)C)C(=O)N[C@@H](CCSC)C(=O)N[C@@H](Cc1c[nH]cn1)C(=O)N[C@@H](CC(N)=O)C(=O)N[C@@H](CC(C)C)C(=O)NCC(=O)N[C@@H](CCCCN)C(=O)N[C@@H](Cc1c[nH]cn1)C(=O)N[C@@H](CC(C)C)C(=O)N[C@@H](CC(N)=O)C(=O)N[C@@H](CO)C(=O)N[C@@H](CCSC)C(=O)N[C@@H](CCC(=O)O)C(=O)N[C@@H](CCCNC(=N)N)C(=O)N[C@H](C(=O)N[C@@H](CCC(=O)O)C(=O)N[C@@H](Cc1c[nH]c2ccccc12)C(=O)N[C@@H](CC(C)C)C(=O)N[C@@H](CCCNC(=N)N)C(=O)N[C@@H](CCCCN)C(=O)N[C@@H](CCCCN)C(=O)N[C@@H](CC(C)C)C(=O)N[C@@H](CCC(N)=O)C(=O)N[C@@H](CC(=O)O)C(=O)N[C@H](C(=O)N[C@@H](Cc1c[nH]cn1)C(=O)N[C@@H](CC(N)=O)C(=O)N[C@@H](Cc1ccccc1)C(=O)O)C(C)C)C(C)C [[Ala^1]-HPTH-(1-34)]
- In vivo Chick hypercalcemia [2]: 4600(3500-6000) MRCU/mg
